Assay results reported in ChEMBL document CHEMBL4715894, “Design and synthesis of an anthranyl bridged optically active dinuclear iron(II)-ligand and evaluation of DNA-cleaving activity” (Bioorg Med Chem Lett, 2021).
The source made the active and inactive calls. The rule behind the calls is not given here.

How the values were obtained:
Type in all cases: nucleic-acid assay
DNA [1] = experiment: Induction of DNA cleavage in Escherichia coli ER2272 pUC19 plasmid DNA assessed as decrease in supercoiled DNA at 0.1 to 50 uM in presence of Fe2+ at 0.1 to 5 uM after 60 mins by ethidium bromide staining based densitometric method; conditions: dose 0.1-50 µM
dsDNA [2] = experiment: Induction of DNA cleavage in pBluescript II SK+ DNA (unknown origin) assessed as cleaved in 5'-CT-3' sequence at 30 uM in presence of Fe2+ at 30 uM after 30 mins by PAGE based DNA sequencing analysis
DNA [3] = experiment: Induction of DNA cleavage in Escherichia coli ER2272 pUC19 plasmid DNA assessed as linear DNA at 0.1 to 50 uM in presence of Fe2+ at >5 uM uM after 60 mins by ethidium bromide staining based densitometric method; conditions: dose 0.1-50 µM
DNA [4] = experiment: Induction of DNA cleavage in Escherichia coli ER2272 pUC19 plasmid DNA assessed as decrease in supercoiled DNA at 0.1 to 50 uM in presence of Fe2+ at 10 uM after 60 mins by ethidium bromide staining based densitometric method relative to control; parameters: scale not given: the % may be the effect or the level left; conditions: dose 0.1-50 µM
DNA [5] = experiment: Induction of DNA cleavage in Escherichia coli ER2272 pUC19 plasmid DNA assessed as linear DNA at 30 uM in presence of Fe2+ at 30 uM up to 15 mins by ethidium bromide staining based densitometric method; conditions: time min <=15
DNA [6] = experiment: Induction of DNA cleavage in Escherichia coli ER2272 pUC19 plasmid DNA assessed as increase in relaxed circular DNA at 30 uM in presence of Fe2+ at 30 uM by ethidium bromide staining based densitometric method; conditions: time min <=15
DNA [7] = experiment: Induction of DNA cleavage in Escherichia coli ER2272 pUC19 plasmid DNA assessed as decrease in supercoiled DNA at 30 uM in presence of Fe2+ at 30 uM by ethidium bromide staining based densitometric method; conditions: time min <=15
DNA [8] = experiment: Induction of DNA cleavage in Escherichia coli ER2272 pUC19 plasmid DNA assessed as decrease in relaxed circular DNA at 0.1 to 50 uM in presence of Fe2+ at 30 to 50 uM after 60 mins by ethidium bromide staining based densitometric method; conditions: dose 0.1-50 µM
DNA [9] = experiment: Induction of DNA cleavage in Escherichia coli ER2272 pUC19 plasmid DNA assessed as increase in linear DNA at 15 uM in presence of Fe2+ at 30 uM after 1 min by ethidium bromide staining based densitometric method
dsDNA [10] = experiment: Induction of DNA cleavage in pBluescript II SK+ DNA (unknown origin) assessed as cleaved in 5'-AATTCCGGAA-3' sequence at 5 uM in presence of Fe2+ at 30 uM after 10 mins by PAGE based DNA sequencing analysis
DNA [11] = experiment: Induction of DNA cleavage in Escherichia coli ER2272 pUC19 plasmid DNA assessed as decrease in linear DNA at 0.1 to 50 uM in presence of Fe2+ at 30 to 50 uM after 60 mins by ethidium bromide staining based densitometric method; conditions: dose 0.1-50 µM
DNA [12] = experiment: Induction of DNA cleavage in Escherichia coli ER2272 pUC19 plasmid DNA assessed as increase in relaxed circular DNA at 15 uM in presence of Fe2+ at 30 uM after 1 min by ethidium bromide staining based densitometric method
DNA [13] = experiment: Induction of DNA cleavage in Escherichia coli ER2272 pUC19 plasmid DNA assessed as decrease in supercoiled DNA at 0.1 to 50 uM in presence of Fe2+ at 30 to 50 uM after 60 mins by ethidium bromide staining based densitometric method; conditions: dose 0.1-50 µM
DNA [14] = experiment: Induction of DNA cleavage in Escherichia coli ER2272 pUC19 plasmid DNA assessed as decrease in relaxed circular DNA at 15 uM in presence of Fe2+ at 30 uM <=15 min by ethidium bromide staining based densitometric method; conditions: time min <=15
DNA [15] = experiment: Induction of DNA cleavage in Escherichia coli ER2272 pUC19 plasmid DNA assessed as decrease in linear DNA at 15 uM in presence of Fe2+ at 30 uM <=15 min by ethidium bromide staining based densitometric method; conditions: time min <=15
dsDNA [16] = experiment: Induction of DNA cleavage in pBluescript II SK+ DNA (unknown origin) assessed as cleaved in 5'-TTAATT-3' sequence at 5 uM in presence of Fe2+ at 30 uM after 10 mins by PAGE based DNA sequencing analysis
DNA [17] = experiment: Induction of DNA cleavage in Escherichia coli ER2272 pUC19 plasmid DNA assessed as decrease in relaxed circular DNA at 0.1 to 50 uM in presence of Fe2+ at 10 uM after 60 mins by ethidium bromide staining based densitometric method; conditions: dose 0.1-50 µM
DNA [18] = experiment: Induction of DNA cleavage in Escherichia coli ER2272 pUC19 plasmid DNA assessed as decrease in supercoiled DNA at 15 uM in presence of Fe2+ at 30 uM after 1 min by ethidium bromide staining based densitometric method relative to control

## N[C@H]1CCCC[C@@H]1N(Cc1ccccn1)Cc1ccccn1
DNA [1]
  Activity: Active
dsDNA [2]
  Activity: Active
DNA [3]
  Activity: Active
DNA [4]
  Activity: 100%

## N[C@@H]1CCCC[C@H]1N(Cc1ccccn1)Cc1ccccn1
DNA [1]
  Activity: Active
dsDNA [2]
  Activity: Active
DNA [5]
  Activity: inactive
DNA [6]
  Activity: Active
DNA [3]
  Activity: Active
DNA [7]
  Activity: Active
DNA [4]
  Activity: 100%

## c1ccc(CN(Cc2ccccn2)[C@@H]2CCCC[C@H]2NCc2cccc3cc4cccc(CN[C@@H]5CCCC[C@H]5N(Cc5ccccn5)Cc5ccccn5)c4cc23)nc1
DNA [8]
  Activity: Active
DNA [9]
  Activity: Active
dsDNA [10]
  Activity: Active
DNA [11]
  Activity: Active
DNA [12]
  Activity: Active
DNA [13]
  Activity: Active
DNA [14]
  Activity: Active
DNA [3]
  Activity: Active
DNA [4]
  Activity: Active
DNA [15]
  Activity: Active
dsDNA [16]
  Activity: Active
DNA [17]
  Activity: Active
DNA [18]
  Activity: Active

## c1ccc(CN(Cc2ccccn2)[C@H]2CCCC[C@@H]2NCc2cccc3cc4cccc(CN[C@H]5CCCC[C@@H]5N(Cc5ccccn5)Cc5ccccn5)c4cc23)nc1
DNA [8]
  Activity: Active
dsDNA [10]
  Activity: Active
DNA [11]
  Activity: Active
DNA [13]
  Activity: Active
DNA [3]
  Activity: Active
DNA [4]
  Activity: Active
dsDNA [16]
  Activity: Active
DNA [17]
  Activity: Active
